# PMC10310857 (Nature Communications, 2023)
# Target: Pst_13661 (Puccinia striiformis f. sp. tritici, UniProt A0A0L0V0Y3, T32S)
# Format: biochemical
# Details: 100 µM
structure (smiles),measurement,value
"O=C(NO)c1ccccc1 [Compound 1, benzohydroxamic acid]",Inhibition Rate Pst_13661 Mean,100.8%
